{"source": "patent US9492470B2", "about": "“Use of HMGA-targeted phosphorothioate DNA aptamers to suppress carcinogenic activity and increase sensitivity to chemotherapy agents in human cancer cells” (MIAMI UNIVERSITY, priority 2012, dated 2016)", "key": {"[1]": {"system": "HMGA1 expression levels in AsPC-1 cells", "assay": "Western blot of HMGA1 expression levels in AsPC-1 nuclear extracts", "type": "cell-based, Human", "details": "AsPC-1, 100 nM gemcitabine, 48 hours", "protocol": "Cytoplasmic and nuclear protein extracts were prepared from pancreatic cancer cells using NE-PER extraction kit (Thermo Scientific, Rockford, Ill.). Protein concentrations were determined using a bicinchoninic acid assay with bovine serum albumin as a standard. Nuclear proteins that contained 25 or 15 μg total protein were separated by SDS-PAGE with a 4%-20% Criterion gradient gel (Bio-Rad Laboratories, Inc., Hercules, Calif.). The proteins were transferred to immuno-blot PVDF membrane (0.2 μm) (Bio-Rad Laboratories, Inc., Hercules, Calif.) and blocked in 5% dry milk in PBS supplemented with 0.2% Tween 20 (PBST). The PVDF membranes were then probed with 1:1000 dilution of rabbit anti-HMGA1 antibody (Santa Cruz Biotechnology Inc, Santa Cruz, Calif.) and 1:100 dilution of rabbit anti-HMGA2 antibody (Abcam plc, Cambridge, Mass.), in 3% BSA in PBST at 4° C. overnight. After three washes with PBST, the membrane was blotted with secondary antibody, ant-rabbit IgG-HRP (cell signaling) 1:5000 dilution in 1% dry milk in PBST at room temperature for 1 hour. An enhanced chemiluminescence detection (ECL, GE Healthcare Life Sciences, Piscataway, N.J.) system was used to detect target proteins. To ensure equal loading of the proteins between groups, membranes were re-probed with anti-TATA binding protein antibody (Abcam plc, Cambridge, Mass.). […] The control was nuclear extract from untreated cells. Triplicates of each sample were run on the gel and analyzed with the Alpha Imager. The relative HMGA1 densities were obtained by dividing HMGA 1 density by TBP density. […] TATA binding protein (TBP) was used as a loading control. […] HMGA1 expression levels were examined after transfection with CG-sDNA or AT-sDNA to determine if the transfection procedure affected HMGA1 expression levels. The AT-sDNA used for transfection contained an 18 adenine/thymine stretch enabling HMGA1 to bind the DNA with all three AT-hooks. As a negative control, a non-HMGA1-targeted sDNA containing an equal length of DNA but with no AT-stretches, i.e. CG-sDNA, was used. […]"}, "AsPC-1 cells [2]": {"system": "AsPC-1 cells", "assay": "Cell growth with gemcitabine treatment after sDNA transfection, AsPC-1", "type": "cell-based, Human", "details": "for Fold change in numbers of viable cells normalized relative to TC: AsPC-1, 0.1 ug sDNA", "protocol": "(§1) Cells were fixed after 96 hours and numbers of viable cells counted by measuring the absorbance at 570 nm.\n(§2) Cells were transfected with 0.1 μg of TC-sDNA, Mix-sDNA, CG-sDNA, and AT-sDNA."}, "Miapaca-2 cells [3]": {"system": "Miapaca-2 cells", "assay": "Cell growth with gemcitabine treatment after sDNA transfection, Miapaca-2", "type": "cell-based, Human", "details": "96 hours; for Fold change in numbers of viable cells normalized relative to TC: Miapaca-2, 0.1 ug sDNA", "protocol": "as §1, §2"}, "AsPC-1 cells [4]": {"system": "AsPC-1 cells", "assay": "Cell growth with gemcitabine treatment after sDNA transfection, AsPC-1", "type": "cell-based, Human", "details": "for Fold change in numbers of viable cells, TC cells with gemcitabine: AsPC-1, TC (no sDNA), 96 hours"}, "Miapaca-2 cells [5]": {"system": "Miapaca-2 cells", "assay": "Cell growth with gemcitabine treatment after sDNA transfection, Miapaca-2", "type": "cell-based, Human", "details": "for IC50: Homo sapiens, MIA PaCa-2, 96 h"}, "Miapaca-2 cells [6]": {"system": "Miapaca-2 cells", "assay": "Cell viability (crystal violet) after sDNA transfection, Miapaca-2", "type": "cell-based, Human", "details": "for cells dead compared to UT: versus untransfected (UT) cells", "protocol": "The absorbance was measured at 570 nm in quadruplicate. All data from control cells were combined and averaged."}, "AsPC-1 cells [7]": {"system": "AsPC-1 cells", "details": "for cells dead compared to UT: versus untransfected (UT) cells", "experimental": "AsPC-1 cells were grown in Roswell Park Memorial Institute medium supplemented with 10% FBS, and 1% penicillin-streptomycin.\nTransfections using sDNA at concentrations of 0.1 and 0.25 μg per well were conducted with 5×10^4 and 1×10^5 Miapaca-2 and AsPC-1 cells, respectively, in 24-well plates and all data were collected in quadruplicate. Miapaca-2 and AsPC-1 cells were transfected with sDNA using Lipofectamine 2000 (Invitrogen,™ Life Technologies Corporation, Carlsbad, Calif.) according to the manufacturer's protocol.\nBriefly, AsPC-1 cells grown in 10% FBS containing RPIM medium were trypsinized using a trypsin-EDTA solution commercially available from the Sigma-Aldrich, and used to seed fresh media in a 24-well plate with 10^5 cells per well.\nAfter 48 hours, the cells were transfected with the selected sDNA using Lipofectamine 2000 (Invitrogen,™ Life Technologies Corporation, Carlsbad, Calif.) according to the manufacturer's protocol. […] The cells were then fixed with 4% paraformaldehyde in PBS for 20 minutes and stained in 0.1% crystal violet stain (Sigma-Aldrich) for 30 minutes. The cells were washed under running tap water, air dried, and extracted with 0.2% Triton™ X-100 for 30 minutes. […] The absorbance of the Triton X-100 was measured at 570 nm using a HTS microplate reader. All results were analyzed for statistical significance using a student's unpaired t-test."}, "[8]": {"details": "Miapaca-2, 0.1 μg sDNA, 96 h after transfection"}, "[9]": {"details": "AsPC-1, 0.1 μg sDNA, 96 h after transfection"}}, "note": "Where two headings read alike, the source gives them in different places. In the oligonucleotide strings, read from the 5' end, every base follows the letter of its sugar. An asterisk marks phosphorothioate; unmarked linkages are phosphodiester. Other units and linkages are bracketed, terminal groups are in braces. A string of capitals states the bases alone. d = 2'-deoxy (DNA)"}
{"molecule": "Nc1ccn([C@@H]2O[C@H](CO)[C@@H](O)C2(F)F)c(=O)n1", "note": "[Gemcitabine, gemcitabine]", "values": [{"measurement": "change in HMGA1 expression levels after gemcitabine", "setting": "[1]", "result": "no change"}, {"measurement": "Fold change in numbers of viable cells, TC cells with gemcitabine", "setting": "AsPC-1 cells [2]; AsPC-1, TC (no sDNA), Gemcitabine 30 nM, 96 hours", "result": "−1.04", "unit": "fold"}, {"measurement": "IC50", "setting": "AsPC-1 cells [2]; Homo sapiens, ASPC1, 96 h, read-out: Gemcitabine IC50 in transfection control (TC) cells, AsPC-1, TC (no sDNA), 0.1 μg column, 96 hours", "result": 28, "unit": "nM"}, {"measurement": "Fold change in numbers of viable cells, TC cells with gemcitabine", "setting": "Miapaca-2 cells [3]; Miapaca-2, TC (no sDNA), Gemcitabine 30 nM", "result": "−3.21", "unit": "fold"}, {"measurement": "Fold change in numbers of viable cells, TC cells with gemcitabine", "setting": "AsPC-1 cells [4]; Gemcitabine 10 nM", "result": "−1.02", "unit": "fold"}, {"measurement": "Fold change in numbers of viable cells, TC cells with gemcitabine", "setting": "AsPC-1 cells [4]; Gemcitabine 100 nM", "result": "−1.36", "unit": "fold"}, {"measurement": "Fold change in numbers of viable cells, TC cells with gemcitabine", "setting": "AsPC-1 cells [4]; Gemcitabine 1000 nM", "result": "−1.52", "unit": "fold"}, {"measurement": "IC50", "setting": "AsPC-1 cells [4]; Homo sapiens, ASPC1, 96 h, read-out: Gemcitabine IC50 in transfection control (TC) cells, AsPC-1, TC (no sDNA), 0.25 μg column, 96 hours", "result": 24.8, "unit": "nM"}, {"measurement": "IC50", "setting": "Miapaca-2 cells [5]; read-out: Gemcitabine IC50 in transfection control (TC) cells, Miapaca-2, TC (no sDNA), 0.1 μg column, 96 hours", "result": "11.9 ± 1.2", "unit": "nM"}, {"measurement": "IC50", "setting": "Miapaca-2 cells [5]; read-out: Gemcitabine IC50 in transfection control (TC) cells, Miapaca-2, TC (no sDNA), 0.25 μg column, 96 hours", "result": "21.5 ± 0.6", "unit": "nM"}, {"measurement": "change in cell viability, TC cells", "setting": "Miapaca-2 cells [5]; Miapaca-2, TC (no sDNA), 1 nM gemcitabine, 96 hours", "result": "no significant change"}, {"measurement": "cells surviving, TC cells", "setting": "Miapaca-2 cells [5]; Miapaca-2, TC (no sDNA), 10 nM gemcitabine, 96 hours", "result": 77.1, "unit": "%"}, {"measurement": "Fold change in numbers of viable cells, TC cells with gemcitabine", "setting": "Miapaca-2 cells [5]; Miapaca-2, TC (no sDNA), Gemcitabine 1 nM, 96 hours", "result": 1.00, "unit": "fold"}, {"measurement": "Fold change in numbers of viable cells, TC cells with gemcitabine", "setting": "Miapaca-2 cells [5]; Miapaca-2, TC (no sDNA), Gemcitabine 10 nM, 96 hours", "result": "−1.30", "unit": "fold"}, {"measurement": "Fold change in numbers of viable cells, TC cells with gemcitabine", "setting": "Miapaca-2 cells [5]; Miapaca-2, TC (no sDNA), Gemcitabine 100 nM, 96 hours", "result": "−3.59", "unit": "fold"}, {"measurement": "Fold change in numbers of viable cells, TC cells with gemcitabine", "setting": "Miapaca-2 cells [5]; Miapaca-2, TC (no sDNA), Gemcitabine 1000 nM, 96 hours", "result": "−3.47", "unit": "fold"}]}
{"molecule": "Mix-sDNA: random phosphorothioate DNA (SEQ ID NO: 13), control lacking a HMGA-specific binding sequence (DNA dC*dC*dC*dA*dC*dT*dG*dC*dA*dG*dT*dC*dG*dG*dA*dC*dT*dC*dA*dC*dT*dC*dG*dC)", "values": [{"measurement": "cells dead compared to UT", "setting": "Miapaca-2 cells [6]; Miapaca-2, 0.1 ug sDNA, 48 hrs", "result": 30.4, "unit": "%"}, {"measurement": "Fold change in numbers of viable cells between TC and sDNA transfected cells (in parentheses)", "setting": "Miapaca-2 cells [6]; [8]", "result": "(1.07) fold"}, {"measurement": "Fold change in numbers of viable cells between UT and transfected cells", "setting": "Miapaca-2 cells [6]; [8]", "result": "−1.45", "unit": "fold"}, {"measurement": "cells dead compared to UT", "setting": "Miapaca-2 cells [6]; Miapaca-2, 0.1 ug sDNA, 96 hrs", "result": 33.3, "unit": "%"}, {"measurement": "difference in cell viability between TC cells and sDNA transfected cells", "setting": "Miapaca-2 cells [6]; Miapaca-2, 0.1 ug sDNA, both 48 and 96 hours", "result": "no significant differences"}, {"measurement": "Fold change in numbers of viable cells normalized relative to TC", "setting": "AsPC-1 cells [2]; Gemcitabine 0 nM, 96 hours", "result": "−1.14", "unit": "fold"}, {"measurement": "Fold change in numbers of viable cells normalized relative to TC", "setting": "AsPC-1 cells [2]; Gemcitabine 1 nM, 96 hours", "result": "−1.06", "unit": "fold"}, {"measurement": "Fold change in numbers of viable cells normalized relative to TC", "setting": "AsPC-1 cells [2]; Gemcitabine 10 nM, 96 hours", "result": "−1.16", "unit": "fold"}, {"measurement": "Fold change in numbers of viable cells normalized relative to TC", "setting": "AsPC-1 cells [2]; Gemcitabine 30 nM, 96 hours", "result": "−1.17", "unit": "fold"}, {"measurement": "Fold change in numbers of viable cells normalized relative to TC", "setting": "AsPC-1 cells [2]; Gemcitabine 100 nM, 96 hours", "result": "−1.36", "unit": "fold"}, {"measurement": "Fold change in numbers of viable cells normalized relative to TC", "setting": "AsPC-1 cells [2]; Gemcitabine 1000 nM, 96 hours", "result": "−1.59", "unit": "fold"}, {"measurement": "cells dead / change in cell viability", "setting": "Miapaca-2 cells [3]; Miapaca-2, 0.1 μg sDNA, 1 nM gemcitabine", "result": "no significant change"}, {"measurement": "cells surviving", "setting": "Miapaca-2 cells [3]; Miapaca-2, 0.1 μg sDNA, 10 nM gemcitabine, normalized to 0 nM gemcitabine", "result": 94.5, "unit": "%"}, {"measurement": "Fold change in numbers of viable cells normalized relative to TC", "setting": "Miapaca-2 cells [3]; Gemcitabine 0 nM", "result": 1.07, "unit": "fold"}, {"measurement": "Fold change in numbers of viable cells normalized relative to TC", "setting": "Miapaca-2 cells [3]; Gemcitabine 10 nM", "result": 1.01, "unit": "fold"}, {"measurement": "Fold change in numbers of viable cells normalized relative to TC", "setting": "Miapaca-2 cells [3]; Gemcitabine 30 nM", "result": "−2.65", "unit": "fold"}, {"measurement": "Fold change in numbers of viable cells normalized relative to TC", "setting": "Miapaca-2 cells [3]; Gemcitabine 100 nM", "result": "−4.41", "unit": "fold"}, {"measurement": "Fold change in numbers of viable cells normalized relative to TC", "setting": "Miapaca-2 cells [3]; Gemcitabine 1000 nM", "result": "−4.48", "unit": "fold"}, {"measurement": "cells dead compared to UT", "setting": "AsPC-1 cells [7]; AsPC-1, 0.1 ug sDNA, 48 hrs", "result": 28.0, "unit": "%"}, {"measurement": "Fold change in numbers of viable cells between TC and sDNA transfected cells (in parentheses)", "setting": "AsPC-1 cells [7]; [9]", "result": "(−1.14) fold"}, {"measurement": "Fold change in numbers of viable cells between UT and transfected cells", "setting": "AsPC-1 cells [7]; [9]", "result": "−1.24", "unit": "fold"}, {"measurement": "cells dead compared to UT", "setting": "AsPC-1 cells [7]; AsPC-1, 0.1 ug sDNA, 96 hrs", "result": 19.4, "unit": "%"}, {"measurement": "difference in cell viability between TC cells and sDNA transfected cells", "setting": "AsPC-1 cells [7]; AsPC-1, 0.1 ug sDNA, both 48 and 96 hours", "result": "no significant differences"}, {"measurement": "Fold change in numbers of viable cells normalized relative to TC", "setting": "Miapaca-2 cells [5]; Miapaca-2, 0.1 ug sDNA, Gemcitabine 1 nM, 96 hours", "result": 1.12, "unit": "fold"}]}
